According to US20190330290A1, “PHARMACEUTICAL ASSOCIATION OF GROWTH FACTOR RECEPTOR AGONIST AND ADHESION PROTEIN INHIBITOR FOR CONVERTING A NEOPLASTIC CELL INTO A NON-NEOPLASTIC CELL AND USES THEREOF” (HISTIDE AG, priority 2015, published 2019):
Where no end group is shown, it is not given here.

Tests used:
[1] = tested on: p53; experiment: p53 protein expression level, immunofluorescence staining quantified with ImageJ; format: cell-based, human; conditions: MG63 cells; alginate matrix with cyclic GFR-binding peptide + SiRNA Integrin alpha 3 + SiRNA Integrin beta 1; 48 h; 400 ng/mL GFR-binding compound
Protocol: (§1) The cells were first fixed for 20 min with 4% paraformaldehyde/PBS at 4° C. After fixation, the cells were permeabilized in PBS containing 1% Triton X-100 for 15 min. Protein immunofluorescent visualization was performed by first treating the cells with 1% (v/v) specific monoclonal antibodies for 1 hour at 37° C. Then the samples were incubated with Alexa fluor® 568 or 647 (F(ab′)2 fragment of IgG(H+L)) during 30 min at room temperature. The cell nuclei were counterstained in 20 ng/mL DAPI for 10 min at room temperature.
(§2) For this type of quantification the freeware image analysis ImageJ® software was used. The raw image was first converted to an 8-bit file, and then the unsharp mask feature was used (settings 1:0.2) to remove the image background (rolling ball radius 10). After smoothing, the resulting image, which appears similar to the original photomicrograph but with minimal background, was then converted to a binary image by setting a threshold. Threshold values were determined empirically by selecting a setting, which gave the most accurate binary image for a subset of randomly selected photomicrographs. The cell area was determined by manual delineation on raw fluorescent images. Total contact area and mean contact area per cell were calculated by “analyse particules” in ImageJ®. A minimum of 50 cells per condition were analyzed.
(§3) Neoplastic cells (in this example osteosarcoma cells) were cultured in the presence of pharmaceutical associations of the invention. A rapid (24 hours) decrease of the tumor markers was observed (FIG. 5). The adhesion checkpoint then activates the tumor suppressor proteins p53 and pRB.
(§4) The alginate used in these experiments was the Ultra Pure Sodium alginate powder PRONOVA UP MVG from Novamatrix (FMC Biopolymers, cat. no. 4200106). To a 1% MillQ water (1 g per 100 mL) alginate solution were added the cyclic GFR-binding peptide and the SiRNA molecules. The resulting mixture was then added to the cell cultures for 48 h.

[2] = tested on: pRB; experiment: pRB phosphorylation level, immunofluorescence staining quantified with ImageJ; format: cell-based, human
Protocol: as §1, §2, §3, §4

[3] = MG63 cells, alginate matrix with cyclic GFR-binding peptide + SiRNA Integrin alpha 3 + SiRNA Integrin beta 1, 48 h, 400 ng/mL GFR-binding compound
[4] = human osteosarcoma cells, MG63, pharmaceutical association containing the GFR-binding compound (Table 6)

GGGGGGGGGDENEKVVNDEGLESVPEDLSSLSVLFFDENEKVV (also: cyclic (mode not given here)) [SEQ ID NO: 4717]
P53 (%) [1]: 42%
pRB (%) [2, 3]: 12%

AAAAAAAAADAANNVVGIPEPSSVSQELSATSMLYYDAANNVV (also: cyclic) [SEQ ID NO: 4730]
P53 (%) [1]: 37%
pRB (%) [2, 3]: 10%

NDEGLESVPTEESAISMLYL (Non-cyclic GFR-binding peptide) [SEQ ID NO: 56]
pRB (%) [2, 4]: 18%

GGGGGGGGGFDNDENVVRVPSTSSVPEKMEPLTMLYYFDNDENVV (also: cyclic (mode not given here)) [SEQ ID NO: 4736]
P53 (%) [1]: 47%
pRB (%) [2, 3]: 9%

GGGGGGGGGDDSSNVISTPPTSSSRVQLSAISMLYLDDSSNVI (also: cyclic (mode not given here)) [SEQ ID NO: 4725]
P53 (%) [1]: 29%
pRB (%) [2, 3]: 6%

GGGGGGGGGDDSSNVIGIPEPSSAPTRLEPISMLYLDENEKVV (also: cyclic (mode not given here)) [SEQ ID NO: 4731]
P53 (%) [1]: 40%
pRB (%) [2, 3]: 8%

GGGGGGGGGDDSSNVISTPPTSSVSQKMKPLSILYVDDSSNVI (also: cyclic (mode not given here)) [SEQ ID NO: 4735]
P53 (%) [1]: 51%
pRB (%) [2, 3]: 8%

AAAAAAAAADENEKVVAASKASSSRVELRSVKIAKVDDSSNVI (also: cyclic) [SEQ ID NO: 4723]
P53 (%) [1]: 50%
pRB (%) [2, 3]: 8%

GGGGGGGGGDENEKVVRVPSTSSTQVDLNAISVLYFDENEKVV (also: cyclic (mode not given here)) [SEQ ID NO: 4729]
P53 (%) [1]: 38%
pRB (%) [2, 3]: 13%

GGGGGGGGGDDSSNVIKIPKASSVPTGGSNITVQIMDDSSNVI (also: cyclic (mode not given here)) [SEQ ID NO: 4722]
P53 (%) [1]: 51%
pRB (%) [2, 3]: 17%

AAAAAAAAADENEKVVAASKASSVPEKMRPVQTRKIDDSSNVI (also: cyclic) [SEQ ID NO: 4741]
P53 (%) [1]: 49%
pRB (%) [2, 3]: 15%

NDEGLESVPTEERSVKVAKV (Non-cyclic GFR-binding peptide) [SEQ ID NO: 63]
pRB (%) [2, 4]: 22%

GGGGGGGGGFDNDENVVGIPEPSSAPVDMRPVQIRKIFDNDENVV (also: cyclic (mode not given here)) [SEQ ID NO: 4742]
P53 (%) [1]: 46%
pRB (%) [2, 3]: 14%

AAAAAAAAADAANNVVKIPKASSTQVRLRSVKTAKVDAANNVV (also: cyclic) [SEQ ID NO: 4740]
P53 (%) [1]: 52%
pRB (%) [2, 3]: 15%

GGGGGGGGGFDNDENVVSTPPTSSTPTKMSNITTQIMFDNDENVV (also: cyclic (mode not given here)) [SEQ ID NO: 4737]
P53 (%) [1]: 53%
pRB (%) [2, 3]: 18%

GGGGGGGGGDDSSNVIRVPSTSSAPTKMNAISMLYFDENEKVV (also: cyclic (mode not given here)) [SEQ ID NO: 4719]
P53 (%) [1]: 44%
pRB (%) [2, 3]: 15%

GGGGGGGGGDENEKVVKIPKASSVSQQLEPISTLYLDENEKVV (also: cyclic (mode not given here)) [SEQ ID NO: 4732]
P53 (%) [1]: 42%
pRB (%) [2, 3]: 9%

AAAAAAAAADAANNVVKIPKASSSRVRLSSLSTLFFDAANNVV (also: cyclic) [SEQ ID NO: 4727]
P53 (%) [1]: 32%
pRB (%) [2, 3]: 11%

GGGGGGGGGDDSSNVIRVPSTSSVPTGQSAISTLYLDDSSNVI (also: cyclic (mode not given here)) [SEQ ID NO: 4718]
P53 (%) [1]: 40%
pRB (%) [2, 3]: 10%

AAAAAAAAADENEKVVAASKASSVPQEEEPLPMVYYDAANNVV (also: cyclic) [SEQ ID NO: 4721]
P53 (%) [1]: 39%
pRB (%) [2, 3]: 12%

ASASPSSVSQDLSSLSILFF (Non-cyclic GFR-binding peptide) [SEQ ID NO: 58]
pRB (%) [2, 4]: 15%

SSVKSQPSRVHHKPLSMLYV (Non-cyclic GFR-binding peptide) [SEQ ID NO: 62]
pRB (%) [2, 4]: 18%

GGGGGGGGGDDSSNVIAASKASSTPTDLNAISTLYFDDSSNVI (also: cyclic (mode not given here)) [SEQ ID NO: 4728]
P53 (%) [1]: 33%
pRB (%) [2, 3]: 15%

SIPKASSTPTELSPINMLYF (Non-cyclic GFR-binding peptide) [SEQ ID NO: 54]
pRB (%) [2, 4]: 23%

AAAAAAAAADENEKVVRVPSTSSVPAEESNITVQIMDDSSNVI (also: cyclic (mode not given here)) [SEQ ID NO: 4738]
P53 (%) [1]: 55%
pRB (%) [2, 3]: 16%

GGGGGGGGGDENEKVVGIPEPSSAPVDLKPLSTLYVDENEKVV (also: cyclic (mode not given here)) [SEQ ID NO: 4720]
P53 (%) [1]: 38%
pRB (%) [2, 3]: 9%

GGGGGGGGGFDNDENVVAASKASSVPQRLRSVKVAKVFDNDENVV (also: cyclic (mode not given here)) [SEQ ID NO: 4739]
P53 (%) [1]: 51%
pRB (%) [2, 3]: 14%

VVPKPSSAPTQLEPISILYL (Non-cyclic GFR-binding peptide) [SEQ ID NO: 59]
pRB (%) [2, 4]: 21%

GGGGGGGGGDENEKVVSTPPTSSVPTEVSPINTLYFDENEKVV (also: cyclic (mode not given here)) [SEQ ID NO: 4733]
P53 (%) [1]: 38%
pRB (%) [2, 3]: 17%

AAAAAAAAADENEKVVKIPKASSVPTKMKPLSVLYVDDSSNVI (also: cyclic (mode not given here)) [SEQ ID NO: 4734]
P53 (%) [1]: 50%
pRB (%) [2, 3]: 12%

GGGGGGGGGDENEKVVRVPSTSSTQVKMSAISMLYLDENEKVV (also: cyclic (mode not given here)) [SEQ ID NO: 4726]
P53 (%) [1]: 32%
pRB (%) [2, 3]: 10%

GGGGGGGGGDENEKVVKIPKASSTQVRLRPVQIRKIDAANNVV (also: cyclic (mode not given here)) [SEQ ID NO: 4724]
P53 (%) [1]: 47%
pRB (%) [2, 3]: 7%

SSVKSQPSRVHHSPISILFI (Non-cyclic GFR-binding peptide) [SEQ ID NO: 57]
pRB (%) [2, 4]: 17%
